Experiment [1] deals with Human neuronal cells (ATCC, HCN-1A). The experiment can be described thus: Dot blot of released CAP37 in supernatants of human neuronal cells. The settings on record: 75 μg/ml, 12 hrs, HCN-1A neurons. The experiment is classed as cell-based. The protocol:
FIG. 10: Dot blot analysis of supernatants from human neuronal cells in vitro with anti-CAP37 antiserum. Top row (from left to right) consists of CAP37 standards, at 20, 10, 5 and 2.5 μg/ml. 2nd row consists of doubling dilutions of supes from β-amyloid treated neuronal cultures. Row 3 consists of doubling dilutions of supes from untreated neuronal cultures. Row 4-no antigen/control.
The expression of CAP37 in neurons was further corroborated using in vitro culture. Human neuronal cells (ATCC, HCN-1A) were cultured according to specifications, transferred to serum-free medium for 6 hr and treated with β-amyloid fragment 1-42 (75 μg/ml), control peptide 40-1 (75 μg/ml), and media for 12 hrs. Supernatants were analyzed by dot blot for presence of released CAP37 (FIG. 10) and cells stained with anti-CAP37 antiserum (FIG. 11A) and normal mouse serum (FIG. 11B) to determine cell-associated CAP37.

Experiment [2] concerns HUVECs. The experiment can be described thus: ELISA of released CAP37 in supernatants of HUVEC cultures. The experiment is classed as cell-based, human. To be noted: supernatants of treated HUVEC cultures. An excerpt:
Flow cytometry confirmed the studies described in FIG. 5. TNFα treated cells that were permeabilized indicated up to a 5-fold increase of CAP37 expression over untreated cells (FIG. 6). […] To determine whether CAP37 is released from treated endothelial cells, ELISA was used to analyze supernatants from TNFα treated HUVEC cultures. Levels of released CAP37 from treated HUVECs were two-fold over untreated cells (data not shown). It was clear that the amount and proportion of CAP37 released from HUVECs was in general much less than the amount and proportion of CAP37 released from PMN (6). Almost 90% of total CAP37 is released from PMN following phagocytosis (6).
(ELISA stands for enzyme-linked immunosorbent assay.)

The test system of experiment [3] is HUVECs. The experiment can be described thus: Flow cytometry of cell associated CAP37 in HUVECs. The settings on record: 10 ng/ml TNFα, permeabilized HUVECs. The experiment is classed as cell-based, human. How it is done:
FIG. 6: Flow cytometric analysis of cell associated CAP37 in HUVECs. HUVECs were incubated 18 h in the absence (unt) or presence of 10 ng/ml TNFα (TNFα), permeabilized and labeled with antisera to human CAP37 or normal serum control. Cells were permeabilized to determine intracellular levels of CAP37. A representative histogram from two independent experiments. The shift due to FITC-staining indicates increased expression of CAP37 in TNFα stimulated cells. Also indicated is a low level of constitutive CAP37 expression (unt).
HUVECs that were serum starved for 6 h were incubated in the absence or presence of 10 ng/ml TNFα for 10 h and 18 h. Permeabilized and non-permeabilized cells were fixed and stained essentially as described by Gräbner (18). The cells were first blocked with 4% normal donkey serum (JACKSON), then incubated at 4° C. with rabbit anti-human CAP37 antisera (1:300), and followed by biotin-sp-donkey F(ab′)2 anti-rabbit IgG, (JACKSON, 1:200) at 4° C. For detection the cells were incubated with fluorescein (DTAF)-conjugated streptavidin (JACKSON) at 2 μg/ml at 4° C. Cells were analyzed by flow cytometry (FACSCALIBUR, BECTON DICKINSON, San Jose, Calif.). Unstained cells and cells stained with normal rabbit serum were included as controls.

Turning to “β-amyloid fragment 1-42: toxic 42-amino acid beta-amyloid peptide used to induce CAP37 in human neurons”, the “concentration of released (secreted) CAP37 in supernatants” value in experiment [1] is recorded as “approximately 2.5 μg/ml”. In the case of TNFα, in the experiment on HUVECs [2], the “levels of released CAP37 over untreated cells” value is “two-fold”. In addition, the “increase of CAP37 expression over untreated cells” value in the experiment on HUVECs [3] is given as at most 5 fold.

The values are drawn from patent US9399675B2, “Methods and compositions for diagnosing Alzheimer's disease and age-related macular degeneration” (The Board of Regents of the University of Oklahoma, priority 2007, dated 2016).
